In patent publication US20170114025A1, “METHODS FOR INHIBITING NECROPTOSIS” (Catalyst Therapeutics Pty Ltd, priority 2014, published 2017):
pIC50: −log10 of the molar value. Where two headings read alike, the source gives them in different places.

Assays:
[1] = tested on: U937 human histiocytic leukemia cell line; assay: Screening for inhibition of TSQ induced necroptosis, 96 well plate format; assay type: cell-based; conditions: for IC50: U-937, U937, TSQ, 48 hours; for pIC50: U-937, 48 h
Procedure: Screening Compounds for Inhibition of TSQ Induced Necroptosis, 96 Well Plate Format.
U937 human histiocytic leukemia cell line.
35,000 per well in 120 μL of media, counted and plated immediately prior to addition of inhibitor and death stimuli. Final well volume of 150 μL after addition of compounds and death stimuli
HTRPMI (WEHI Media kitchen, contains L-Glutamine and penicillin, streptomycin)—supplemented with 7.4% v/v FCS (Gibco, Precision Plus. Lot #1221437)
48 hours following addition of compounds and death stimuli
DMSO Final Concentration (% v/v): 0.2%
Compounds that are in the Death Stimulation Cocktail and their Final Concentrations: • hTNF-Fc (100 ng/ml)—produced by Silke lab, WEHI • Compound A (500 nM)—Smac mimetic, Tetralogic • Q-VD-OPh (10 μM)—MP Biomedicals
Analysis: • Cells treated with PI staining (1 μg/ml) and analysed by flow cytometry
TNF; S: Smac mimetic; Q: Q-VD-OPh): TSQ treatment ensures that cells specifically undergo necroptotic cell death. TNF activates the TNF receptor, Smac mimetic direct the signal away from proinflammatory signaling and toward the RIP1/RIP3-mediated cell death pathways, and Q-VD-OPh ensures that the apoptotic response is blocked leaving only the programmed necrosis response. The compounds' activity (solution in DMSO) tested in this TSQ-induced assay is evaluated by measuring their ability to block cell death as measured by flow cytometry after PI staining.

U937 cells = assay: Counter screen: cell viability without TSQ cocktail (off target effect); assay type: cell-based
Procedure: In parallel, all compounds are tested for their ability to affect cell viability. The same U937 cells are treated with compound in DMSO without the TSQ cocktail. This counter screen enables evaluation of off-target effects. In this case gain, cell viability is measured by flow cytometry after PI staining.

[2] = average IC50, unit not given in Table 2 (titrations in nM), read-out: Cell based assay Average
[3] = unit not given in Table 2 (titrations given in nM), read-out: Cell based assay IC50
[4] = U937 without TSQ cocktail, compound at 500 nM
[5] = U937 without TSQ cocktail, compound at 1 uM
[6] = U937 without TSQ cocktail, compound at 5 uM
[7] = U937 without TSQ cocktail, compound at 10 uM

Compound | IC50 [1, 2] | IC50 [1, 3] | Off target effect (% cell death) at 500 nM (U937 cells; [4]) | Off target effect (% cell death) at 1 uM (U937 cells; [5]) | Off target effect (% cell death) at 5 uM (U937 cells; [6]) | Off target effect (% cell death) at 10 uM (U937 cells; [7]) | pIC50 ([1]; read-out: Cell based assay Average) | pIC50 ([1]; read-out: Cell based assay IC50) | Off target effect (% cell death) at 500 nM (U937 cells; human, 500 nM) | Off target effect (% cell death) at 1 uM (U937 cells; human, 1 uM) | Off target effect (% cell death) at 5 uM (U937 cells; human, 5 uM) | Off target effect (% cell death) at 10 uM (U937 cells; human, 10 uM)
CN(c1ccc(NC(=O)Nc2ccc(OC(F)(F)F)cc2)cc1)c1ccnc(Nc2ccccc2S(N)(=O)=O)n1 [Compound 5, 2-(4-(Methyl(4-(3-(4-(trifluoromethoxy)phenyl)ureido)phenyl)amino)pyrimidin-2-ylamino)benzenesulfonamide] | > 10000 nM | ≥ 10000 nM | – | – | – | – | – | – | – | – | – | –
Cc1ccc(F)c(NC(=O)Nc2ccc(N(C)c3ccnc(Nc4cccc(S(N)(=O)=O)c4)n3)cc2)c1 [Compound 6] | 19.9 nM | 19 nM | <20% | 40% | 86% | 89% | – | – | – | – | – | –
CN(c1ccc(NC(=O)Nc2ccc(OC(F)(F)F)cc2)cc1)c1ccnc(Nc2cccc(C(N)=O)c2)n1 [Compound 8, 3-((4-(methyl(4-(3-(4-(trifluoromethoxy)phenyl)ureido)phenyl)amino)pyrimidin-2-yl)amino) benzamide] | 89.1 nM | 85.2 nM | – | – | – | – | – | – | – | – | – | –
CNS(=O)(=O)c1cccc(Nc2nccc(N(C)c3ccc(NC(=O)Nc4ccc(OC(F)(F)F)cc4)cc3)n2)c1 [Compound 9, N-methyl-3-((4-(methyl(4-(3-(4-(trifluoromethoxy)phenyl)ureido)-phenyl)amino)pyrimidin-2-yl)amino) benzenesulfonamide] | 42 nM | 73.1 nM | <20% | <20% | 43% | 88% | – | – | – | – | – | –
CN(c1ccc(NC(=O)Nc2ccc(OC(F)(F)F)cc2)cc1)c1ccnc(Nc2cccc(S(=O)(=O)N(C)C)c2)n1 [Compound 10, N,N-dimethyl-3-((4-(methyl(4-(3-(4-(trifluoromethoxy)phenyl)ureido)-phenyl)amino)pyrimidin-2-yl)amino)benzenesulfonamide] | 45.6 nM | 72.4 nM | <20% | <20% | 38% | 69% | – | – | – | – | – | –
NS(=O)(=O)c1cccc(Nc2nccc(Nc3ccc(NC(=O)Nc4ccc(OC(F)(F)F)cc4)cc3)n2)c1 [Compound 11, 3-((4-((4-(3-(4-(trifluoromethoxy)phenyl)ureido)phenyl)amino)pyrimidin-2-yl)amino)benzenesulfonamide] | 359 nM | 359 nM | <20% | <20% | <20% | 20% | – | – | – | – | – | –
CN(C(=O)Nc1ccc(OC(F)(F)F)cc1)c1ccc(N(C)c2ccnc(Nc3cccc(S(N)(=O)=O)c3)n2)cc1 [Compound 12, 3-((4-(methyl(4-(1-methyl-3-(4-(trifluoromethoxy)phenyl)ureido)phenyl)amino)pyrimidin-2-yl)amino) benzene sulfonamide] | – | 327 nM | 36% | 41% | 36% | 56% | – | – | – | – | – | –
CN(c1ccc(NC(=O)Nc2ccc(OC(F)(F)F)cc2)cc1)c1ccnc(Nc2cccc(CS(N)(=O)=O)c2)n1 [Compound 13, (3-((4-(Methyl(4-(3-(4-(trifluoromethoxy)phenyl)ureido)phenyl)amino)pyrimidin-2-yl)amino)phenyl)methanesulfonamide] | 149 nM | 167 nM | 24% | 20% | 14% | 84% | – | – | – | – | – | –
CN(c1cccc(NC(=O)Nc2ccc(OC(F)(F)F)cc2)c1)c1ccnc(Nc2cccc(S(N)(=O)=O)c2)n1 [Compound 14, 3-((4-(methyl(3-(3-(4-(trifluoromethoxy)phenyl)ureido)phenyl)amino)pyrimidin-2-yl)amino) benzenesulfonamide] | – | – | <20% | <20% | <20% | 70% | 6.47 | 6.35 | – | – | – | –
CN(c1ccc(NC(=O)Nc2ccc(OC(F)(F)F)cc2)cc1)c1ccnc(Nc2cccc(S(N)(=O)=O)c2)c1 [Compound 15, 3-((4-(methyl(4-(3-(4-(trifluoromethoxy)phenyl)ureido)phenyl)amino)pyridin-2-yl)amino) benzenesulfonamide] | 304 nM | 328 nM | <20% | <20% | <20% | 43% | – | – | – | – | – | –
CN(c1ccc(NC(=O)Cc2ccc(OC(F)(F)F)cc2)cc1)c1ccnc(Nc2cccc(S(N)(=O)=O)c2)n1 [Compound 16, N-(4-(methyl(2-((3-sulfamoylphenyl)amino)pyrimidin-4-yl)amino)phenyl)-2-(4-(trifluoro-methoxy)phenyl)acetamide] | 87.3 nM | 97.5 nM | <20% | <20% | <20% | 30% | – | – | – | – | – | –
CN(c1ccc(CC(=O)Nc2ccc(OC(F)(F)F)cc2)cc1)c1ccnc(Nc2cccc(S(N)(=O)=O)c2)n1 [Compound 17, 2-(4-(methyl(2-((3-sulfamoylphenyl)amino)pyrimidin-4-yl)amino)phenyl)-N-(4-(trifluoromethoxy)phenyl)acetamide] | 1050 nM | 979 nM | 22% | 21% | <20% | 39% | – | – | – | – | – | –
CN(c1ccc(NC(=O)Nc2ccc(OC(F)(F)F)cc2)cc1)c1ccnc(Nc2ccc(F)c(S(N)(=O)=O)c2)n1 [Compound 18, 2-Fluoro-5-((4-(methyl(4-(3-(4-(trifluoromethoxy)phenyl)ureido)phenyl)amino)pyrimidin-2-yl)amino)benzenesulfonamide] | 59.4 nM | 91.7 nM | 27% | 29% | 94% | 93% | – | – | – | – | – | –
Cc1ccc(Nc2nccc(N(C)c3ccc(NC(=O)Nc4ccc(OC(F)(F)F)cc4)cc3)n2)cc1C(=O)N(C)C [Compound 19, N,N,2-trimethyl-5-((4-(methyl(4-(3-(4-(trifluoromethoxy)phenyl)ureido)phenyl)amino)pyrimidin-2-yl)amino)benzamide] | 85.5 nM | 114 nM | 28% | 30% | 26% | 70% | – | – | – | – | – | –
Cc1cc(OC(F)(F)F)ccc1NC(=O)Nc1ccc(N(C)c2ccnc(Nc3cccc(S(N)(=O)=O)c3)n2)cc1 [Compound 20, 3-((4-(Methyl(4-(3-(2-methyl-4-(trifluoromethoxy)phenyl)ureido)phenyl)-amino)pyrimidin-2-yl)amino) benzenesulfonamide] | 109 nM | 143 nM | – | – | – | – | – | – | 24% | 29% | 33% | 80%
Cc1ccc(Nc2nccc(N(C)c3ccc(NC(=O)Nc4ccc(OC(F)(F)F)cc4)cc3)n2)cc1S(N)(=O)=O [Compound 21, 2-Methyl-5-((4-(methyl(4-(3-(4-(trifluoromethoxy)phenyl)ureido)phenyl)amino)pyrimidin-2-yl)amino) benzenesulfonamide] | 58.4 nM | 72.7 nM | <20% | <20% | 51% | 79% | – | – | – | – | – | –
CN(c1ccc(NC(=O)C(C)(C)c2ccc(OC(F)(F)F)cc2)cc1)c1ccnc(Nc2cccc(S(N)(=O)=O)c2)n1 [Compound 22, 2-methyl-N-(4-(methyl(2-((3-sulfamoylphenyl)amino)pyrimidin-4-yl)amino)phenyl)-2-(4-(trifluoromethoxy)phenyl)propanamide] | 204 nM | – | <20% | <20% | 35% | 80% | – | – | – | – | – | –
